For data set [1] the following is noted: visual observation.
Data set [2] can be described thus: Solid-liquid equilibrium temperature. As to conditions: Crystal, Closed cell.
Data set [3] can be described thus: Molar enthalpy of transition or fusion. As to conditions: Crystal; DSC.

The structures appear in SMILES notation. Numbers after ± are expanded uncertainties.

On to `CCCCCCCCCCCCCCCCCCO` [1-octadecanol], for which the Normal melting temperature in data set [1] (Crystal 1) was 57.00 ± 0.5 °C.

`CCCCCCCCCCCCCCCC` [hexadecane]: the Normal melting temperature in data set [1] (Crystal) turned out to be 18.30 ± 0.25 °C.

In the case of `CCC(=O)C(C)=O` [2,3-pentanedione], the Normal melting temperature in data set [1] (Crystal 1) is -52.00 ± 0.5 °C. The Solid-liquid equilibrium temperature in data set [2] (697870 kPa) was 293.15 ± 2.6 K; in data set [2] (807350 kPa), 303.15 ± 2.6 K; in data set [2] (947230 kPa) it was 313.15 ± 2.5 K; in data set [2] (1117520 kPa), 323.15 ± 2.5 K; in data set [2] (1318200 kPa) it was 333.15 ± 2.5 K; in data set [2] (1549280 kPa), 343.15 ± 2.8 K. Further, in data set [3], the “Molar enthalpy of transition or fusion” value was 1.87 ± 0.055 kcal/mol.

Regarding `CCCCCCCCCCCCCCCCCCCC` [eicosane], in data set [1] (Crystal), the Normal melting temperature stood at 36.36 ± 0.25 °C.

For the compound `CCCCCCCCCCCCCCCCCCCCO` [1-eicosanol], in data set [1] (Crystal 1), the Normal melting temperature was determined as 64.52 ± 0.5 °C.

For the compound `CCCCCCCCCCCCCCCCO` [1-hexadecanol], the Normal melting temperature in data set [1] (Crystal 1) amounted to 49.1 ± 0.5 °C.

For the compound `CCCCCCCCCCCCC` [tridecane], in data set [1] (Crystal), the Normal melting temperature is -4.14 ± 0.35 °C. Moreover, the Solid-liquid equilibrium temperature was 293.15 ± 0.9 K in data set [2] (132350 kPa); 303.15 ± 1.2 K in data set [2] (196230 kPa); 313.15 ± 1.6 K in data set [2] (264630 kPa); 323.15 ± 1.9 K in data set [2] (337550 kPa); 333.15 ± 2.1 K in data set [2] (415000 kPa); 343.15 ± 2.5 K in data set [2] (496960 kPa).

Consider `C1CCCCC1` [cyclohexane], for which the Normal melting temperature in data set [1] (Crystal) came to 7.0 ± 0.25 °C. In addition, the Solid-liquid equilibrium temperature came out at 293.15 ± 0.52 K in data set [2] (23390 kPa); 303.15 ± 0.89 K in data set [2] (45610 kPa); 313.15 ± 1.3 K in data set [2] (67600 kPa); 323.15 ± 1.7 K in data set [2] (89340 kPa); 333.15 ± 2.1 K in data set [2] (110840 kPa); 343.15 ± 2.5 K in data set [2] (132100 kPa).

(Values after the NIST ThermoML archive (doi:10.1016/j.fluid.2006.02.001).)
